Measurements: patent US20250304545A1, “WATER-SOLUBLE HETEROCYCLYL POLYMETHINE CHROMOPHORES” (The Regents of the University of California, priority 2022, published 2025)

Columns and labels:
[1] = Photophysical properties of exemplary compounds in DCM solution; format: physicochemical; details: for λmax (first value of the cell): first of two wavelengths; for λmax (second value of the cell): second of two wavelengths
[2] = reference value; cited from earlier work
[3] = Systemic vasculature SWIR imaging with SulfoChrom7, compared with ICG; format: in vivo, mice; details: for distribution within 30 min: co-injection of SulfoChrom7 and ICG, 10 nmol each i.v.
Protocol: (§1) Animal experiments were conducted in conformity with guidelines from the University of California, Los Angeles with protocols approved by the Animal Research Committee (protocol number ARC-2018-047). Non-invasive whole mouse imaging was performed on athymic nude female mice (5-15 weeks old), purchased from Charles River Laboratories. Mice were anesthetized with inhaled 2-4% isoflurane. Tail vein injections were performed with a catheter assembled from a 29-gauge needle connected through plastic tubing to a syringe prefilled with isotonic saline solution. The bevel of the needle was then inserted into the tail vein and secured using tissue adhesive. The plastic tubing was then connected to a syringe (30-gauge needle) prefilled with the compound of interest. All solutions were filtered through a 0.22 μm syringe filter prior to i.v. injection.
(§2) Imaging instrument was installed according to published procedure, using an Allied Vision Goldeye G-032 Cool TEC2 camera with illumination from LU0975DLU350-S30AN03 (35 W, 975 nm laser) and LU0785D250-U70AN (25 W, 785 nm laser) Lumics laser units to record images at 14-bit depth. Illumination was adjusted to 100 mW/cm^2 for 975 nm and 50 mW/cm^2 for 785 mm. Excitation was provided at 975 nm for Sulfo-, Ammon-, Zwit- and PhosphoChrom7, and at 785 nm for ICG. Fluorescence images were recorded with an 1100 nm long-pass filter unless otherwise noted. Dual-channel imaging (SulfoChrom7/ICG, or fluorescent imaging/bright field imaging) was performed with pulsed excitation that matches the detection window of the camera, or persistent ambient fluorescent lighting for bright field images to be subtracted as background in the fluorescence channel.
Images were processed using the Fiji distribution of ImageJ. All images were background subtracted to correct for non-linearities in the detector and/or excitation. […] Videos were saved as raw avi and cropped, frame-rate adjusted and compressed with FFmpeg. For dual-channel imaging, emission of the SulfoChrom7 and AmmonChrom7 in 785 nm channel was estimated to be 9.0% intensity of their 975 nm image as derived from the capillary experiment, and subtracted from the 785 nm channel.

[4] = in vivo; cited from earlier work
SK-OV-3 tumors = assay: Fluorescence tracking of growth of SK-OV-3 tumor xenografts; format: in vivo, mice; details: 39 days after xenograft, 4 h after i.v. OTL-38
Protocol: A375 or SK-OV-3 cells were grown to confluency and incubated with full media supplemented with 50 μM of AmmonChrom7 for 12 h. Cells were then incubated with full media for 6 h, followed by digestion with trypsin-EDTA. The cell pellet was further washed with PBS (×3). For A375 cells, stained or unstained cells were suspended in 1:1 PBS and Matrigel; 100 μL of cell suspension (3.3 million cells) were injected to each site. Tumor 2D-projected sizes A were monitored by caliper measurement of long diameter a and short diameter b of the tumors and estimated by the following equation:
For SK-OV-3 cells, cells were suspended in 1:1 PBS and Matrigel; 100 μL of cell suspension (2.5 million cells) was injected to each site. […]
as §2, with “Illumination was adjusted to 100 mW/cm^2 for 975 nm and 50 mW/cm^2 for 785 mm. Excitation was provided at 975 nm for Sulfo-, Ammon-, Zwit- and PhosphoChrom7, and at 785 nm for ICG.” left out

[5] = Hydroxyapatite binding assay; details: 50 μM dye in bovine serum, sequential washes
Protocol: Hydroxyapatite powder was purchased from Acros Organics. To a suspension of 10 mg of hydroxyapatite in 100 μL of bovine serum was added 50 μM PhosphoChrom7 and the mixture was placed on a revolver for 30 min for initial binding, followed by centrifugation to remove supernatant. For washing, the pellet was resuspended in 100 μL of bovine serum by vortexing and placed on a revolver for 30 min followed by centrifugation to remove supernatant. The pellet was finally resuspended in 100 μL of bovine serum for imaging under the SWIR camera. For quantification, each centrifuge tube containing the suspension was recorded at the center of the illumination/viewing field to calculate mean fluorescence intensity at the bottom area of the tube.

HEK293 cells [6] = assay: MTT toxicity assay; format: cell-based; details: low concentrations
Protocol: HEK293 cells were split into three cultures as replicates. For each replicate, HEK293 cells were passed onto flat-bottomed 96-well plate to 40-50% confluency and left 6 h for adhesion. Different concentrations of compounds were added to the medium (1:40 dilution from aqueous stock solution) in quadruplicate and incubated for 18 h. After incubation, cells were treated with 100 μL of full media containing 0.5 mg/mL MTT for 2 h, followed by addition of 100 μL of aqueous solution containing 10% SDS and 1:1000 HCl. After 3-4 h incubation, cell viability was determined by measuring the absorbance at 490 nm using a plate reader.

[7] = Aggregation / monomeric dispersion by absorption spectra in water, MeOH/H2O and serum; format: physicochemical; details: for aggregation state: in water
Text: (§3) Absorption spectra were collected on a JASCO V-770 UV-visible/NIR spectrophotometer after blanking with the appropriate solvent. Photoluminescence spectra were obtained on a Horiba Instruments PTI QuantaMaster Series fluorometer. Fetal bovine serum (FBS) or bovine serum were purchased from Gibco. Quartz cuvettes (10 mm×10 mm) were used for absorption and photoluminescence measurements unless otherwise noted. All spectra were obtained at ambient temperature. Fluorescence quantum yield was measured with 830 nm excitation using Flav7 as a reference (ΦF=0.61%).

[8] = Bone imaging in mice with PhosphoChrom7; format: in vivo
Protocol: as §1, §2
Images were processed using the Fiji distribution of ImageJ. All images were background subtracted to correct for non-linearities in the detector and/or excitation. […] Videos were saved as raw avi and cropped, frame-rate adjusted and compressed with FFmpeg. […]

[9] = Photophysical characterization of Chrom7 dyes (absorption, emission, quantum yield); format: physicochemical
Text: as §3

[10] = Biodistribution of water soluble SWIR fluorophores after i.v. injection; format: in vivo, mice; details: 20 nmol into tail vein
Protocol: as §1, with “The plastic tubing was then connected to a syringe (30-gauge needle) prefilled with the compound of interest. All solutions were filtered through a 0.22 μm syringe filter prior to i.v. injection.” left out
as §2, with “Illumination was adjusted to 100 mW/cm^2 for 975 nm and 50 mW/cm^2 for 785 mm. Excitation was provided at 975 nm for Sulfo-, Ammon-, Zwit- and PhosphoChrom7, and at 785 nm for ICG.” left out, “channel. […]” for “channel.”

HEK293 cells [11] = assay: Uptake and retention of dyes in cells (absorbance of cell lysates); format: cell-based; details: 50 μM dye
Protocol: HEK293, SK-OV-3 or A375 cells were split into three cultures as replicates. For each replicate, cells were passed onto 12-well or 24-well plates and grown until ca. 80% confluency. Each well was incubated with 50 μM of AmmonChrom7 for 6 h, and the cells were washed with PBS and incubated in MEM medium supplemented with 1% FBS. At given time points, the cell media were removed and cells were lysed with lysis buffer (150 μL, containing 1% Triton X-100, 0.1% w/v SDS and 0.1% w/v sodium deoxycholate) and diluted with bovine serum (300 μL). The cell lysate was collected and frozen at −20° C. until analysis. To quantify dye content, maximum absorption was used to represent the dye concentration. Scattering was estimated and subtracted with absorption at 1050-1100 nm, using the following equation for fitting: […]

Stability assay in FBS = format: in vitro ADME; details: over 2 days at 37° C. in FBS, 1 μM dye
Protocol: Dyes were diluted to 1 μM in 1 mL of FBS containing 0.02% w/v NaN3 and placed in disposable cuvettes. The cuvettes were sealed with parafilm and placed in 37° C. incubator until given time points. Absorption spectra were taken using the maximum absorption to represent the dye concentration. Each condition was performed in triplicate.

[12] = Brightness comparison by SWIR imaging of dyes in FBS in capillaries; format: physicochemical
Protocol: as §2

## Cc1cc(C)cc(C2=C(/C=C/C3=CC(c4ccccc4)=[SH]c4cc(N(C)C)ccc43)CCC/C2=C\C=C2/C=C(c3ccccc3)Sc3cc(N(C)C)ccc32)c1 [DiMePh SFlav7]
[1]
  ϕF: 0.11 ± 0.01%
  λmax (first value of the cell): 1079 nm
  λmax (second value of the cell): 1107 nm

## CN(C)c1ccc2c(c1)SC(c1ccccc1)=C/C2=C\C=C1/CCCC(/C=C/c2cc(-c3ccccc3)[s+]c3cc(N(C)C)ccc23)=C1c1cc(C(C)(C)C)cc(C(C)(C)C)c1 [DitBuPh SFlav7]
[1]
  ϕF: 0.11 ± 0.02%
  λmax (first value of the cell): 1079 nm
  λmax (second value of the cell): 1107 nm

## CN(C)c1ccc2c(c1)OC(c1ccccc1)=C/C2=C\C=C1/CCCC(/C=C/c2cc(-c3ccccc3)[o+]c3cc(N(C)C)ccc23)=C1Cl [Flav7]
[2]
  ΦF of the reference for fluorescence quantum yield: 0.61%

## CC1(C)C(/C=C/C=C/C=C/C=C2\N(CCCCS(=O)(=O)O)c3ccc4ccccc4c3C2(C)C)=[N+](CCCCS(=O)(=O)[O-])c2ccc3ccccc3c21 [ICG, indocyanine green, reference compound]
[3]
  distribution within 30 min: most ICG accumulated in the liver with secretion into the intestine, leaving negligible signal in the mouse body
[4]
  time of hepatobiliary clearance: ≤ 6 h

## CC1(C)C(/C=C/C2=C(Oc3ccc(C[C@H](NC(=O)c4ccc(NCc5cnc6nc(N)[nH]c(=O)c6n5)cc4)C(=O)[O-])cc3)C(=C/C=C3\N(CCCCS(=O)(=O)[O-])c4ccc(S(=O)(=O)[O-])cc4C3(C)C)/CCC2)=[N+](CCCCS(=O)(=O)[O-])c2ccc(S(=O)(=O)[O-])cc21.[H+].[H+].[H+].[H+] [OTL-38]
SK-OV-3 tumors
  specificity of tumor staining ex vivo: much non-specific accumulation

## Cc1ccccc1C1=C(C=Cc2cc(C(C)(C)C)[o+]c3cc(N(Cc4cn(CCCP(=O)(O)O)nn4)Cc4cn(CCCP(=O)(O)O)nn4)ccc23)CCCC1=CC=C1C=C(C(C)(C)C)Oc2cc(N(Cc3cn(CCCP(=O)(O)O)nn3)Cc3cn(CCCP(=O)(O)O)nn3)ccc21 [PhosphoChrom7]
[5]
  binding towards hydroxyapatite: strong binding affinity
HEK293 cells [6]
  toxicity: mild
[7]; in FBS
  aggregation peak: 760 nm
  solubility: lower than the Sulfo-, Ammon-, or ZwitChrom7
[8]; 54 h after i.v. injection
  organ distribution on dissection: the liver is the major target of the dye
[8]; after i.v. injection
  time at which bone structures begin to feature: 8 h
[8]; compared to previous hydrophilic dyes
  clearance: slightly faster clearance

## C#CCN(CC#C)c1ccc2c(c1)OC(C(C)(C)C)=C/C2=C\C=C1/CCCC(/C=C/c2cc(C(C)(C)C)[o+]c3cc(N(CC#C)CC#C)ccc23)=C1c1ccccc1C [Propargyl-Chrom7]
[9]; in MeOH
  εmax: 14 ± 1 10^4 M^−1cm^−1
  λmax: 928 nm

## Cc1ccccc1C1=C(C=Cc2cc(C(C)(C)C)[o+]c3cc(N(Cc4cn(CCCS(=O)(=O)[O-])nn4)Cc4cn(CCCS(=O)(=O)[O-])nn4)ccc23)CCCC1=CC=C1C=C(C(C)(C)C)Oc2cc(N(Cc3cn(CCCS(=O)(=O)[O-])nn3)Cc3cn(CCCS(=O)(=O)[O-])nn3)ccc21.[Na+].[Na+].[Na+] [SulfoChrom7]
[3]; co-injection 10 nmol each, 1300 nm LP filter
  brightness ratio over ICG in veins, maximum over time: 7-8 fold
[3]
  distribution within 30 min: still reflected the superficial vasculature map while also displaying liver accumulation
[3]; tail vein, 33 fps, 1100 nm LP filter
  amount of dye that enables video-rate imaging of liver and vasculature: 0.05 nmol
[10]
  distribution after 3 h: diffuse signal through the mouse body, but still with substantial liver accumulation
[9]; in FBS
  εmax: 9.5 10^4 M^−1cm^−1
  λmax: 963 nm
  φF: 0.0056 ± 0.0003
[9]; in MeOH
  εmax: 16.5 ± 0.2 10^4 M^−1cm^−1
  λmax: 938 nm
  φF: 0.0106 ± 0.0002
[7]
  aggregation state: discernible monomer absorption
HEK293 cells [11]
  cellular uptake (absorbance of cell lysates): minimal
Stability assay in FBS
  fraction of dye left: around ½
[12]; derived from the capillary experiment
  emission in 785 nm channel as intensity of the 975 nm image: 9.0%
[12]; in FBS, 975 nm excitation (ICG 785 nm)
  SWIR brightness compared with ICG / among the dyes: brightest of the fluorophores

## Cc1ccccc1C1=C(C=Cc2cc(C(C)(C)C)[o+]c3cc(N(Cc4cn(CCC[N+](C)(C)CCCS(=O)(=O)[O-])nn4)Cc4cn(CCC[N+](C)(C)CCCS(=O)(=O)[O-])nn4)ccc23)CCCC1=CC=C1C=C(C(C)(C)C)Oc2cc(N(Cc3cn(CCC[N+](C)(C)CCCS(=O)(=O)[O-])nn3)Cc3cn(CCC[N+](C)(C)CCCS(=O)(=O)[O-])nn3)ccc21.[Cl-] [ZwitChrom7]
[10]
  distribution after 3 h: diffuse signal through the mouse body, but still with substantial liver accumulation
[9]; in FBS
  quantum yield: 0.32%
  εmax: 11.5 10^4 M^−1cm^−1
  λmax: 960 nm
  φF: 0.0032 ± 0.0003
[9]; in MeOH
  εmax: 16.4 ± 0.4 10^4 M^−1cm^−1
  λmax: 940 nm
  φF: 0.0101 ± 0.0004
[7]
  aggregation state: primarily aggregated
HEK293 cells [11]
  cellular uptake (absorbance of cell lysates): minimal
Stability assay in FBS
  fraction of dye left: 1/10
